Results from PubChem BioAssay (NCI).
Several values for one entry are separate records, joined by “and”; a condition that tells them apart may be missing. Equal entries are not always repeated.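 Where inhibition never reached the appropriate level, the endpoint shown equals the highest concentration tested. Otherwise, values were interpolated linearly from a five-concentration, 48-hour dose response in 96-well plates. GI50: concentration for 50% inhibition of growth. TGI: total growth inhibition.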

Columns and labels:
Assay in all cases: growth of human tumour cells (NCI), 48 h
MDA-MB-435 = test system: MDA-MB-435
SK-OV-3 ovarian = test system: SK-OV-3 ovarian
HCT-15 colon = test system: HCT-15 colon
SR leukemia = test system: SR leukemia
RPMI-8226 leukemia = test system: RPMI-8226 leukemia
EKVX NSCLC = test system: EKVX NSCLC
ACHN renal = test system: ACHN renal
OVCAR-5 ovarian = test system: OVCAR-5 ovarian
A498 renal = test system: A498 renal
T-47D breast = test system: T-47D breast

| SMILES | GI50 (MDA-MB-435) [µM] | TGI (MDA-MB-435) | GI50 (SK-OV-3 ovarian) [µM] | TGI (SK-OV-3 ovarian) [µM] | GI50 (HCT-15 colon) [µM] | TGI (HCT-15 colon) [µM] | GI50 (SR leukemia) [µM] | TGI (SR leukemia) [µM] | GI50 (RPMI-8226 leukemia) [µM] | TGI (RPMI-8226 leukemia) [µM] | GI50 (EKVX NSCLC) [µM] | TGI (EKVX NSCLC) [µM] | GI50 (ACHN renal) [µM] | TGI (ACHN renal) [µM] | GI50 (OVCAR-5 ovarian) [µM] | TGI (OVCAR-5 ovarian) [µM] | GI50 (A498 renal) [µM] | TGI (A498 renal) [µM] | GI50 (T-47D breast) [µM] | TGI (T-47D breast) [µM] |
| --- | --- | --- | --- | --- | --- | --- | --- | --- | --- | --- | --- | --- | --- | --- | --- | --- | --- | --- | --- | --- |
| CCOC(=O)c1c(C)n(CC(C)C)c2c1cc1oc(=O)c(=O)n3cnc2c13 | 9.07 | 16.8 µM | 20.4 | > 50 | 15.2 | > 50 | 10.4 | > 50 | 15.8 | 37.2 | 17.4 | > 50 | 9.34 | 24.1 | 29.6 | > 50 | 14.2 | 41.3 |  |  |
| CC(C)CC(CNC(Cc1ccc(Cl)cc1)C(N)=O)NC(=O)C(Cc1cnc[nH]1)NC(=O)CNC(=O)C(NC(=O)C(C)NC(=O)C(Cc1c[nH]c2ccccc12)NC(=O)C(CCC(=O)O)NC(=O)C(N)Cc1ccccc1)C(C)C (stereo not drawn) |  |  |  | > 133 |  | > 133 |  | > 133 |  | > 133 |  | > 133 |  | > 133 |  |  |  | > 133 |  |  |
| O=C(/C=C/c1c(O)ccc2ccccc12)c1cccc2ccccc12 |  |  |  | > 100 |  | > 100 |  | > 100 |  | > 78 |  | > 100 |  | > 100 |  | > 100 |  | > 100 |  |  |
| COc1ccccc1CNC(=O)C1c2ccccc2C(=O)N(CC(C)C)C1c1cccs1 (stereo not drawn) | 16.8 | 39.3 µM | 36.9 | > 100 | 20.8 | > 100 | 13.5 | 74.7 | 13.9 | 45.2 |  |  | 24.8 | 90.3 | 34.6 | > 100 | 11.9 | 51.5 | 20.2 | 89.8 |
| Cc1cccc2c1Oc1cc(Cl)ccc1C2NC(=O)CN(C)C (stereo not drawn) |  |  |  | > 100 |  | > 100 |  | > 100 |  | > 100 |  | > 100 |  | > 100 |  | > 100 |  |  |  |  |
| O=C1/C(=C/c2ccc([N+](=O)[O-])s2)Oc2ccccc21 | 1.3 | 3.17 µM | 2.13 | 5.19 | 0.246 | 0.688 | 0.216 | 0.759 | 0.379 | 3.57 |  |  | 0.568 | 1.77 | 1.78 | 3.53 | 3.22 | 18 | 0.29 | 4.12 |
| CCOC(=O)N1C/C(=C/c2ccc(OC)cc2)C(=O)/C(=C/c2ccc(OC)cc2)C1 | 1.19 | 4.71 µM | 3.63 | 16.6 | 1.64 | 4.91 | 0.579 | > 32.7 | 0.211 | 1.6 |  |  | 1.96 | 5.18 | 4.23 | 21.6 | 3.13 | > 29 | 3.79 | > 100 |
| O=C(CCCNC(=O)OCc1ccccc1)OCc1ccc2c(c1)C(=O)c1ccccc1C2=O |  |  |  | 79 |  | > 100 |  | > 100 |  | > 100 |  | > 100 |  | > 100 |  | > 100 |  | > 100 |  |  |
| Cc1c(C2Cc3ccccc3N2C(=O)/C=C\C(=O)O)c2ccccc2n1C (stereo not drawn) |  |  |  | 48.5 |  | > 100 |  | 85.8 |  |  |  | 72.9 |  | > 100 |  | > 100 |  | 66.3 |  |  |
| NC1=NC2(O)c3ccccc3C(=O)C2(O)N1 (stereo not drawn) |  |  |  | > 100 |  | > 100 |  | > 100 |  | > 100 |  | > 100 |  | > 100 |  | > 100 |  | > 100 |  |  |
| NS(=O)(=O)c1ccc(NC(=O)CC(=O)Nc2ccc(S(N)(=O)=O)cc2)cc1 |  |  |  | > 100 |  | > 100 |  | > 100 |  | > 100 |  | > 100 |  | > 100 |  | > 100 |  | > 100 |  |  |
| O=C(CCC(=O)N/N=C/c1ccccc1O)N/N=C/c1ccccc1O |  |  |  | 37.2 |  | > 100 |  | > 100 |  | > 100 |  | 56.4 |  |  |  | > 100 |  |  |  |  |
| Oc1ccc(Br)cc1/C=N/NC(=S)NC12CC3CC(CC(C3)C1)C2 | 1.98 | 5.45 µM | 3.54 | 11.9 | 0.734 | 3.49 | 0.682 | 3.47 | 2.07 | 5.8 |  |  | 2.08 | 10.3 | 1.89 | 4.78 | 2.18 | 7.19 | 2.15 | 8.33 |
| CCc1ccc(/C(C)=N/NC(N)=S)cc1 |  |  |  | > 100 |  |  |  | > 100 |  | > 100 |  | > 100 |  |  |  | 72.3 |  |  |  |  |
| OCC(O)COc1c(Cl)ccc(Cl)c1Cl (stereo not drawn) |  |  |  | > 100 |  | > 100 |  | > 100 |  |  |  | > 100 |  | > 100 |  | > 100 |  | > 100 |  |  |
| O=C(N=Nc1c(O)[nH]c2c(Cl)cc(Cl)cc12)c1ccncc1 |  | 33.7 µM |  | 69.8 |  | > 100 |  | 69.2 |  |  |  | > 100 |  | > 100 |  | > 100 |  | > 100 |  |  |
| CC(=O)OCC(OC(C)=O)C(OC(C)=O)C(OC(C)=O)C(=O)CNn1c(-c2ccccc2)nc2ccc(Br)cc2c1=O (stereo not drawn) |  |  |  | > 100 |  | > 100 |  | > 100 |  | > 100 |  | > 100 |  | > 100 |  | > 100 |  | > 100 |  |  |
| COc1ccc2[nH]c(-c3cccc(N(C)C)c3)cc(=O)c2c1 | 0.0444 | 0.213 µM and 0.202 µM | 0.573 | 59.2 | 0.374 |  |  | 1.73 | 0.443 | 0.844 | 1.17 | 30.7 |  | > 100 | 0.784 | > 100 |  |  |  |  |
| COC(=O)[C@@H](Cc1c[nH]c2ccccc12)NC(=O)/C=C/c1ccccc1 | 0.782 | 3.91 µM | 3.15 | > 100 | 3.31 | > 100 | 2.98 | 11.6 | 3.48 | 33.7 |  |  | 4.08 | > 100 | 5.43 | > 100 | 0.511 | 6.75 | 8.41 | > 100 |
